The record followed here is PMC5761851, “Application of a phenotypic drug discovery strategy to identify biological and chemical starting points for inhibition of TSLP production in lung epithelial cells” (PLoS ONE, 2018).

What all share (test): kinase selectivity panel
Type in all cases: biochemical

Assay [1] concerns the target T1, Plk3 (Homo sapiens, UniProt Q9H4B4).
T1 construct: purchased Eurofins Pharma Discovery Services (KinaseProfiler; Cerep BioPrint panel)
The following applies: read-out: percentage of control activity (POC), Plk3. The method, then: (§1) Kinase selectivity was evaluated at Eurofins Pharma Discovery Services using a selection of 125 representative kinases tested at a concentration of 10 μM in duplicate (S3 Table). IC50 values for selected activities were further characterized at 9 duplicate concentrations. DNA-PK activity was determined at the SelectScreen® Biochemical kinase Profiling Service of Thermo Fisher Scientific.

In assay [2] the target is T2, p70S6K (Homo sapiens, UniProt P23443).
T2 construct: purchased Eurofins Pharma Discovery Services (KinaseProfiler; Cerep BioPrint panel)
The following applies: read-out: percentage of control activity (POC), p70S6K. The method, then: as §1

The target in assay [3] is T3, CaMKIIγ (Homo sapiens, UniProt Q13555).
T3 construct: purchased Eurofins Pharma Discovery Services (KinaseProfiler; Cerep BioPrint panel)
The settings on record: read-out: percentage of control activity (POC), CaMKIIγ. The method, then:
as §1

Assay [4] addresses T4, PKBα (Homo sapiens, UniProt P31749).
T4 construct: purchased Eurofins Pharma Discovery Services (KinaseProfiler; Cerep BioPrint panel)
The following applies: read-out: percentage of control activity (POC), PKBα. The method, then: as §1

For assay [5], the target named is T5, MAPK1 (Homo sapiens, UniProt P27361).
T5 construct: purchased Eurofins Pharma Discovery Services (KinaseProfiler; Cerep BioPrint panel)
The following applies: read-out: percentage of control activity (POC), MAPK1. The method, then: as §1

For assay [6], the target named is T6, FGFR3 (Homo sapiens, UniProt P22607).
T6 construct: purchased Eurofins Pharma Discovery Services (KinaseProfiler; Cerep BioPrint panel)
The following applies: read-out: percentage of control activity (POC), FGFR3. The method, then:
as §1

For assay [7], the target named is T7, TrkA (Homo sapiens, UniProt P04629).
T7 construct: Eurofins Pharma Discovery Services (contract assay service)
The following applies: for remaining activity at 10 µM: read-out: percentage of control activity (POC), TrkA. The method, then:
as §1

Assay [8] deals with T8, Itk (Homo sapiens, UniProt Q08881).
T8 construct: purchased Eurofins Pharma Discovery Services (KinaseProfiler; Cerep BioPrint panel)
T8 sequence (Q08881 1-620): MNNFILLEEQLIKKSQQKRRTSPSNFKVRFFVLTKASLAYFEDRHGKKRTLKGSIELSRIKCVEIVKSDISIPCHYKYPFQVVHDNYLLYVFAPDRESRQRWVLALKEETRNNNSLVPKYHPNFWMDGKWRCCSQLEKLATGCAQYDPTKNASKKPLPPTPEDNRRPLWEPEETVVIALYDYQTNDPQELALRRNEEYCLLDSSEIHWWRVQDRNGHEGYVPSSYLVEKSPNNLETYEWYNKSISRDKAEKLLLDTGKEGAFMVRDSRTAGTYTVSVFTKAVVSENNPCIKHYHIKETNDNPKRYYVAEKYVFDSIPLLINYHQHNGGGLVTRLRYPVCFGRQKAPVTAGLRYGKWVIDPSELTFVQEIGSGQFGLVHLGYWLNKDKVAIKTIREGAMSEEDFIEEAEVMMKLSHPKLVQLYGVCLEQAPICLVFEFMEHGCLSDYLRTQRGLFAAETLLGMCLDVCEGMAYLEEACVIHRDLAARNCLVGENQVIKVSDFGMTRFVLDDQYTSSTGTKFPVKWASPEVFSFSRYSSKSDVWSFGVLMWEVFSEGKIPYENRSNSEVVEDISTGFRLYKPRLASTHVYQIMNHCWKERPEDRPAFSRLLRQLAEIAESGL
The following applies: read-out: percentage of control activity (POC), Itk. The method, then: as §1

Assay [9] has as its target T9, MST1 (Homo sapiens, UniProt Q13043).
T9 construct: purchased Eurofins Pharma Discovery Services (KinaseProfiler; Cerep BioPrint panel)
T9 sequence (Q13043 1-487): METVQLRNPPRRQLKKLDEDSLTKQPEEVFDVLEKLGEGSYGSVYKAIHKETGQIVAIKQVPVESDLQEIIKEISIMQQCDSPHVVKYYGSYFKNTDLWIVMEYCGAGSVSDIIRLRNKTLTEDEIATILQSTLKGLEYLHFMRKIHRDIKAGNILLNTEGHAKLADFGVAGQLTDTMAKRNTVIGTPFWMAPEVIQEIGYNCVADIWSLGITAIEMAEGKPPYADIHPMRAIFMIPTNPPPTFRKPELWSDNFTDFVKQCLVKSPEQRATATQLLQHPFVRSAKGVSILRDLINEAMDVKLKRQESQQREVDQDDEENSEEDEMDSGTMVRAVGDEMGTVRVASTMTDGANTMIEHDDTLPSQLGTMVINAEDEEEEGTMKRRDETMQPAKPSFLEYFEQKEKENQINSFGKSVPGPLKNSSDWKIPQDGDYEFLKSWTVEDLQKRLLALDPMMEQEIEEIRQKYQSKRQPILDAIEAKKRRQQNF
The following applies: read-out: percentage of control activity (POC), MST1. The method, then: as §1

In assay [10] the target is T10, FAK (Homo sapiens, UniProt Q05397).
T10 construct: purchased Eurofins Pharma Discovery Services (KinaseProfiler; Cerep BioPrint panel)
The following applies: read-out: percentage of control activity (POC), FAK. The method, then: as §1

In assay [11] the target is T11, PKCι (Homo sapiens, UniProt P41743).
T11 construct: purchased Eurofins Pharma Discovery Services (KinaseProfiler; Cerep BioPrint panel)
T11 sequence (P41743 1-596): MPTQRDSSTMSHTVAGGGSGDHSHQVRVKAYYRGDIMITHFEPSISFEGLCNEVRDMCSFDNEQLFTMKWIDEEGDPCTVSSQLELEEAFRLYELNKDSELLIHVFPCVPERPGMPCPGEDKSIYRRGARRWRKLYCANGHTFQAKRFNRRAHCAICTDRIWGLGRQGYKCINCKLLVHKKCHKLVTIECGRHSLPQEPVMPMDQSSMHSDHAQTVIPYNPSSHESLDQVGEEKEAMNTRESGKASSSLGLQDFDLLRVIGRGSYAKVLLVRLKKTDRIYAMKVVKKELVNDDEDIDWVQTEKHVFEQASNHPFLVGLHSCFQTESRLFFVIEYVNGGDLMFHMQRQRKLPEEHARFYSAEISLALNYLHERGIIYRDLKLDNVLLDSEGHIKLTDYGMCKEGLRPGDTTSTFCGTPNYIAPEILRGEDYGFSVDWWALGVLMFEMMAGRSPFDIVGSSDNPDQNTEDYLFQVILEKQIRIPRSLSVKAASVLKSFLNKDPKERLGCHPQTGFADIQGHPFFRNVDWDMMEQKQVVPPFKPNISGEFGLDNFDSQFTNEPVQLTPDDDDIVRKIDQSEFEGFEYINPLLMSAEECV
The following applies: read-out: percentage of control activity (POC), PKCι. The method, then:
as §1

Assay [12] concerns the target T12, mTOR (Homo sapiens, UniProt P42345).
T12 construct: Eurofins Pharma Discovery Services (contract assay service)
The settings on record: for remaining activity at 10 µM: read-out: percentage of control activity (POC), mTOR. The method, then:
as §1

For assay [13], the target named is T13, KDR (Homo sapiens, UniProt P35968).
T13 construct: purchased Eurofins Pharma Discovery Services (KinaseProfiler; Cerep BioPrint panel)
The settings on record: read-out: percentage of control activity (POC), KDR. The method, then:
as §1

In assay [14] the target is T14, Rsk2 (Homo sapiens, UniProt P51812).
T14 construct: purchased Eurofins Pharma Discovery Services (KinaseProfiler; Cerep BioPrint panel)
The following applies: read-out: percentage of control activity (POC), Rsk2. The method, then:
as §1

Several values for one entry are separate records, joined by “and”; a condition that tells them apart may be missing. Identical values can stand only once.

T13 sequence (P35968 20-1356): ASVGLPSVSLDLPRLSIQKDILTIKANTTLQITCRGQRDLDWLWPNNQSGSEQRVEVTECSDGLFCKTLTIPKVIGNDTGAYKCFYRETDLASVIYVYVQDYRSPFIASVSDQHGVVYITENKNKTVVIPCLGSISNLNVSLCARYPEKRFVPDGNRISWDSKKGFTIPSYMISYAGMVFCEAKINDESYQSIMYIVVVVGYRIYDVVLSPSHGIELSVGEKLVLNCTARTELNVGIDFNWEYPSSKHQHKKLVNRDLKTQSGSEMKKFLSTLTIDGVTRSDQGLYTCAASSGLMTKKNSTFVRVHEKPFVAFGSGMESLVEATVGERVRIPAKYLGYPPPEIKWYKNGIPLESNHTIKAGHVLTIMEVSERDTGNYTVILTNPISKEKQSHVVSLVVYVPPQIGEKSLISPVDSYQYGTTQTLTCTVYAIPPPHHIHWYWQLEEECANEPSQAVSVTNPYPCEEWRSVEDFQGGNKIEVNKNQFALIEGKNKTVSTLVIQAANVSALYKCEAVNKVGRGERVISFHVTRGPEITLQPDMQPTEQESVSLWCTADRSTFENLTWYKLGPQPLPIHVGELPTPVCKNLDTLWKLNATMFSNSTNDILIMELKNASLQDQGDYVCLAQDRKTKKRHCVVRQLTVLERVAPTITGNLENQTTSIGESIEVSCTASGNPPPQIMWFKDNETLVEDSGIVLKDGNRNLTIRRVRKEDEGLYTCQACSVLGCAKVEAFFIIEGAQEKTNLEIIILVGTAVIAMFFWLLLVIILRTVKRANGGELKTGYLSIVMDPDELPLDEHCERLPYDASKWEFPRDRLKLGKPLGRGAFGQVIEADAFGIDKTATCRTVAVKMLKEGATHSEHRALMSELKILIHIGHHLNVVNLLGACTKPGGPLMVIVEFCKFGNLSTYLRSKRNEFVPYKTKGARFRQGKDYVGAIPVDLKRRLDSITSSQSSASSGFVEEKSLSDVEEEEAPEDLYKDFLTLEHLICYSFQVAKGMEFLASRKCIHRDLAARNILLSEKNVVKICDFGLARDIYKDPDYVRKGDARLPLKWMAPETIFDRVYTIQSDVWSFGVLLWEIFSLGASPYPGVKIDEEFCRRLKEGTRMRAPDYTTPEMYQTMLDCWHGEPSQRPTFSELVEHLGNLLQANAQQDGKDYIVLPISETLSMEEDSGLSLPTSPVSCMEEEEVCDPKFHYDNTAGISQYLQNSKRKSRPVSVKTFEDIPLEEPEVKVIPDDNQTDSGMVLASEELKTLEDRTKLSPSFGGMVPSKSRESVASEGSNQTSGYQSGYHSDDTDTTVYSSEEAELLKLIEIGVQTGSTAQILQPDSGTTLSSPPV
T3 sequence (Q13555 whole entry): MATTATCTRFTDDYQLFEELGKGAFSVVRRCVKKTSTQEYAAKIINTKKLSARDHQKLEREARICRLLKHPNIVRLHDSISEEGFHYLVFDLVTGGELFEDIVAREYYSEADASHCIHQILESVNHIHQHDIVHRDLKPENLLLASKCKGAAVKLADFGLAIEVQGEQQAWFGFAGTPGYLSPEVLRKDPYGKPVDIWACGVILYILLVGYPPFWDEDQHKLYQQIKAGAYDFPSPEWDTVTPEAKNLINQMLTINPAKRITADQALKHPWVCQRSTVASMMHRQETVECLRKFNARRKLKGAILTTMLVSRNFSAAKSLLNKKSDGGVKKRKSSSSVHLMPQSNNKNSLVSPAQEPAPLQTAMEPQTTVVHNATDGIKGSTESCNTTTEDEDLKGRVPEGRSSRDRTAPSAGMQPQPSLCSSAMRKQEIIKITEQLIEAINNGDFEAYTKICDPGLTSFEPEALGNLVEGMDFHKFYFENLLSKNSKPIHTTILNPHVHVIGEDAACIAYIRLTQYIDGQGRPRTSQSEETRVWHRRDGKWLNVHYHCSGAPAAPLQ
T14 sequence (P51812 whole entry): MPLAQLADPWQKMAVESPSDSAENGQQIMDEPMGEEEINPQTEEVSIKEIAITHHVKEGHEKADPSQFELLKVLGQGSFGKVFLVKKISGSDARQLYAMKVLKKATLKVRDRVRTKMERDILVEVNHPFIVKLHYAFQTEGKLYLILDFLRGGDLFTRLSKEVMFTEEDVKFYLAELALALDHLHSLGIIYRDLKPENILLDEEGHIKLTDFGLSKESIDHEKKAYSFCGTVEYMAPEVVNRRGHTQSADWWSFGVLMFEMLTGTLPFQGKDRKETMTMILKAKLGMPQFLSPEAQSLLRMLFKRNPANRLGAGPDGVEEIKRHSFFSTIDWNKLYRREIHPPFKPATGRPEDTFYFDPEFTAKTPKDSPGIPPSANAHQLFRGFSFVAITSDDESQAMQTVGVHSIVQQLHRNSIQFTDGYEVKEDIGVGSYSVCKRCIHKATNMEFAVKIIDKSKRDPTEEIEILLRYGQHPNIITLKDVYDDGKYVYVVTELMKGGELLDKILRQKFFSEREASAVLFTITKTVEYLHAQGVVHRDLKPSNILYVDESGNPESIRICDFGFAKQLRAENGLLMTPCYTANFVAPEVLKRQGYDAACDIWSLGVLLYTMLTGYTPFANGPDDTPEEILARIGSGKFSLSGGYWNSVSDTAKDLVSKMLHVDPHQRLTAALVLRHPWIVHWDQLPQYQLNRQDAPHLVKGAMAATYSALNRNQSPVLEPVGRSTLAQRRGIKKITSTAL
T1 sequence (Q9H4B4 whole entry): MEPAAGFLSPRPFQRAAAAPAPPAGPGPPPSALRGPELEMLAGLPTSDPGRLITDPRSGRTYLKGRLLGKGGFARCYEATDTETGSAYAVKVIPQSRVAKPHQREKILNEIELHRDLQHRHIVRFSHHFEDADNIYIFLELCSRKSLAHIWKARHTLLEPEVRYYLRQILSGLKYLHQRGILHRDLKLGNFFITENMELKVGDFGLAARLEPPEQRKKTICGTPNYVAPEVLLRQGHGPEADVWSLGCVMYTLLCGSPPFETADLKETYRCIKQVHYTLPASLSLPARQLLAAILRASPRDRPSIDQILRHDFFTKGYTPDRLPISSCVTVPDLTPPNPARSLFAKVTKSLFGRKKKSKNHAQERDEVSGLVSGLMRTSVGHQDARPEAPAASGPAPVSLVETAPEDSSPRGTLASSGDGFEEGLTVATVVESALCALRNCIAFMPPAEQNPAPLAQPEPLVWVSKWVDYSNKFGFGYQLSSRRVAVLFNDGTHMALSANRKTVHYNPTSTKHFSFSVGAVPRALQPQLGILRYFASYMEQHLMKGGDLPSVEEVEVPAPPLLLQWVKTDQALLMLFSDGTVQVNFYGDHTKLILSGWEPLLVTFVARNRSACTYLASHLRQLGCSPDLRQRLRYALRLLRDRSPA
T7 sequence (P04629 33-796, species assumed): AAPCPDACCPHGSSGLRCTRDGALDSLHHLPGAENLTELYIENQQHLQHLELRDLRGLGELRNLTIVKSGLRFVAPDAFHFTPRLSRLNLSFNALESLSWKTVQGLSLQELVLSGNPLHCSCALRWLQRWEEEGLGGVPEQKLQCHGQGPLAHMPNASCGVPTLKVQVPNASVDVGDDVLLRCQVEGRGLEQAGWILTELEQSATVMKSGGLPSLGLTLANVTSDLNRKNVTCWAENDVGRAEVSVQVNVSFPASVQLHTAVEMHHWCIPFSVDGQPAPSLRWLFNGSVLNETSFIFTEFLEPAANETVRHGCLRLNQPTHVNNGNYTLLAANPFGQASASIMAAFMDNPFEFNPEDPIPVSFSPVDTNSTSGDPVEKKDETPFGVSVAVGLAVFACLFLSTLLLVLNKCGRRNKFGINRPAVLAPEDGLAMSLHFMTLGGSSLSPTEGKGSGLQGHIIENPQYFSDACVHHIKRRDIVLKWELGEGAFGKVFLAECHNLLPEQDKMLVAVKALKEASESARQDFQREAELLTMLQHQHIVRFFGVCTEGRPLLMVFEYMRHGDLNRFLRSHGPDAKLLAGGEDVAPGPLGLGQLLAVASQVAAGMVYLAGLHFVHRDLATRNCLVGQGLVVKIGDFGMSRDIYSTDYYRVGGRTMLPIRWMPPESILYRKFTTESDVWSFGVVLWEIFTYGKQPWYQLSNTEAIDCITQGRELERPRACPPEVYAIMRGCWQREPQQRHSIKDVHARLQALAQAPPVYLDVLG
T2 sequence (P23443 whole entry): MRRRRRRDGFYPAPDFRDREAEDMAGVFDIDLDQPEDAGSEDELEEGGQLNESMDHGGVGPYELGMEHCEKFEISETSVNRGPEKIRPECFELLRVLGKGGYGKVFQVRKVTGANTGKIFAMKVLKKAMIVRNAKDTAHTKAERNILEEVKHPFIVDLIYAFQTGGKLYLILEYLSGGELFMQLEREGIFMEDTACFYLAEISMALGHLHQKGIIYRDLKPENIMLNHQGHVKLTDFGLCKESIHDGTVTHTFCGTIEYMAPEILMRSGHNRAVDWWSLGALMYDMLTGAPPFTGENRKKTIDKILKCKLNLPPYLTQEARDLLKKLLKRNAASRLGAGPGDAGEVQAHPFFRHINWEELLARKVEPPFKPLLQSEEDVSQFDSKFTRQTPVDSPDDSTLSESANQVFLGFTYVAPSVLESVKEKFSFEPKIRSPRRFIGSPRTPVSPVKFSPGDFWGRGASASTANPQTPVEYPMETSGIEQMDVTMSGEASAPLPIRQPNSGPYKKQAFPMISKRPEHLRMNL
T5 sequence (P27361 whole entry): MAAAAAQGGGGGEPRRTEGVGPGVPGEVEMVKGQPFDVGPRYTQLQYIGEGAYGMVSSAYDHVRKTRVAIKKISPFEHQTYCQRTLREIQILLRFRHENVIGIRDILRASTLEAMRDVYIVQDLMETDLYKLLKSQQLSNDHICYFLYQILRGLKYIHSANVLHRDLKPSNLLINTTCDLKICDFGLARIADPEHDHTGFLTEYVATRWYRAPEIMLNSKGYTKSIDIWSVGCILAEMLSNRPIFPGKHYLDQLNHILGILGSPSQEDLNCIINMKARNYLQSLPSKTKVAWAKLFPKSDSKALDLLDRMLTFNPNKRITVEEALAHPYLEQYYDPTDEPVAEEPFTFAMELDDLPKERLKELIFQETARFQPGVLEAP

As usually defined, the inhibition is the change of the read-out against control, counted positive when it falls. Lower therefore signals little suppression. In general, IC50 refers to the concentration needed to halve the response being measured. As for `Cn1cc(-c2cccc(-c3nc(C(=O)NC4C5CC6CC4CC(O)(C6)C5)c(N)nc3N)c2)cn1` (centres unmarked) [compound 4], the remaining activity at 10 µM was found to be 95% in assay [1]; 92% in assay [2]; 83% in assay [3]; 96% in assay [4]; 96% in assay [5]; 88% in [6]. Besides, the remaining activity at 10 µM in [7] (10 μM) stood at 14%; in assay [8], 109%; in [9] it was 58%; in [10], 99%; in assay [11], 87%; in assay [12] (10 μM) it was 13%. Also, the remaining activity at 10 µM in [13] was 72%; in assay [14] it was 88%. Besides, the inhibition at 10 µM is 86% in assay [7] (10 μM) and 87% in assay [12] (10 μM). Further, the IC50 in assay [7] (biochemical dose response, duplicate, read-out: Inhibition of indicated activity (IC50, μM): TrkA) was 3.23 µM; in assay [12] (biochemical dose response, duplicate, read-out: Inhibition of indicated activity (IC50, μM): mTOR), ~1 µM and 0.964 µM.

Turning to `COc1c(NC(=O)c2ccc(C)c(-c3nnc4c(NCC(C)(C)C)nccn34)c2)cc(C(C)(C)C)cc1NS(C)(=O)=O` [compound 7, reference compound], the remaining activity at 10 µM in assay [1] came out at 104%; in [2], 102%; in assay [3], 102%; in [4] it was 99%; in assay [5], 85%; in [6] it was 97%. Further, the remaining activity at 10 µM came out at 68% in assay [7] (10 μM); 114% in assay [8]; 101% in [9]; 104% in [10]; 103% in assay [11]; 96% in assay [12] (10 μM). For the same compound, the remaining activity at 10 µM is 82% in assay [13] and 112% in assay [14].

Regarding `Cc1ccc(C(=O)NCC2CC2)cc1-c1ccc2c(c1)NC(=O)C21CCCC1` [compound 3], the remaining activity at 10 µM in [1] worked out at 101%; in assay [2] it was 95%; in assay [3], 103%; in [4], 91%; in assay [5] it was 88%; in assay [6], 92%. The remaining activity at 10 µM is 67% in assay [7] (10 μM); 103% in assay [8]; 88% in assay [9]; 99% in assay [10]; 100% in assay [11]; 99% in assay [12] (10 μM). The remaining activity at 10 µM in [13] was determined as 93%; in assay [14] it was 103%.

As to `CC(C)(C)N1CCC(c2cc(-c3ccc(F)cc3Cl)c3cc[n+]([O-])c(-c4c(Cl)cccc4Cl)c3n2)CC1` [compound 2], the remaining activity at 10 µM in [1] is 111%; in [2], 104%; in [3] it was 91%; in assay [4], 95%; in assay [5], 105%; in [6], 99%. Moreover, the remaining activity at 10 µM was 91% in [7] (10 μM); 110% in assay [8]; 103% in [9]; 111% in assay [10]; 103% in [11]; 101% in assay [12] (10 μM). The results for the remaining activity at 10 µM in assay [13] and in assay [14] were 92% and 101%, respectively.

Regarding `CS(=O)(=O)N1CCN(c2ccc(Nc3ncc(C(N)=O)c(NC4CC4)n3)cc2)CC1` [compound 5], the remaining activity at 10 µM was 63% in [1]; 54% in [2]; 24% in assay [3]; 86% in assay [4]; 34% in [5]; 8% in assay [6]. Moreover, the remaining activity at 10 µM in assay [7] (10 μM) is 1%; in assay [8], 3%; in assay [9] it was -1%; in assay [10] it was 1%; in [11], 83%; in assay [12] (10 μM), 96%. Besides, the values for the remaining activity at 10 µM in assay [13] and in [14] were 6% and -2%, respectively.
